The term IC50 denotes the midpoint of a concentration-inhibition curve.

Data on 38 compounds can be found in patent publication US11957671B2, “Benzodioxane modulators of leukotriene A4 hydrolase (LTA4H) for prevention and treatment of aging-associated diseases” (Alkahest, Inc., priority 2021, dated 2024).

The assay relates to synthesis of LTB4 in human whole blood. The assay can be described thus: human whole blood (HWB) assay, LTB4 production inhibition. Format: cell-based. The note with it: calcimycin 20 μM. The procedure:
The compounds of the invention are additionally tested in a human whole blood (HWB) assay to determine their ability to inhibit the synthesis of LTB4 in a cellular system. Compounds are combined with heparinized human whole blood and incubated for 15 minutes at 37° C. Calcimycin (20 μM final, prepared in phosphate-buffered saline, pH 7.4) is then added and the mixture is incubated for another 30 minutes at 37° C. The samples are centrifuged for 5 min at low speed (1500×g) and the plasma layer is removed. Plasma LTB4 concentrations are then measured using an antibody-based homogenous time-resolved fluorescence method (CisBio, Bedford, Mass.). In general, the preferred potency range (IC50) of compounds in the HWB assay is between 10 nM to 10 μM, the more preferred potency range is 10 nM to 1 μM, and the most preferred potency range is 10 nM to 100 nM.
Regarding `O=C1CCCN1CC1CCCN(Cc2ccc(C3COc4ccccc4O3)cc2)C1` (racemic) [Example 10, 1-({1-[4-(2,3-dihydro-1,4-benzodioxin-2-yl)benzyl]piperidin-3-yl}methyl)pyrrolidin-2-one], the IC50 came to 0.352 µM.
Turning to `c1cnc2c(c1)OCC(c1ccc(CN3CCOCC3)cc1)O2` (racemic) [Example 18, 3-[4-(morpholin-4-ylmethyl)phenyl]-2,3-dihydro[1,4]dioxino[2,3-b]pyridine], the IC50 was 0.176 µM.
In the case of `CNC(=O)C1CCN(Cc2ccc(C3COc4ccccc4O3)cc2)CC1` (racemic) [Example 25, 1-[4-(2,3-dihydro-1,4-benzodioxin-2-yl)benzyl]-N-methylpiperidine-4-carboxamide], the IC50 is 0.294 µM.
The figure for `O=C(O)CCCC1CCN(Cc2ccc(C3COc4ccccc4O3)cc2)CC1` (racemic) [Example 26, 4-{1-[4-(2,3-dihydro-1,4-benzodioxin-2-yl)benzyl]piperidin-4-yl}butanoic acid] is 0.308 µM; for `O=C(C1CCN(Cc2ccc(C3COc4ccccc4O3)cc2)CC1)N1CCOCC1` (racemic) [Example 37, {1-[4-(2,3-dihydro-1,4-benzodioxin-2-yl)benzyl]piperidin-4-yl}(morpholin-4-yl)methanone] it is 0.324 µM.
Take `O=C(NCCO)C1CCN(Cc2ccc(C3COc4ccccc4O3)cc2)CC1` (racemic) [Example 52, 1-[4-(2,3-dihydro-1,4-benzodioxin-2-yl)benzyl]-N-(2-hydroxyethyl)piperidine-4-carboxamide]: the IC50 came out at 0.145 µM.
The figure for `NC(=O)NC1CCN(Cc2ccc(C3COc4ccccc4O3)cc2)CC1` (racemic) [Example 53, 1-{1-[4-(2,3-dihydro-1,4-benzodioxin-2-yl)benzyl]piperidin-4-yl}urea] is 0.155 µM.
The figure for `O[C@H]1CCN(Cc2ccc(C3COc4ccccc4O3)cc2)C1` (stereo partly drawn) [Example 9, (3S)-1-[4-(2,3-dihydro-1,4-benzodioxin-2-yl)benzyl]pyrrolidin-3-ol] is 0.285 µM; for `O=C(O)C1CCN(Cc2ccc([C@H]3COc4ccccc4O3)cc2)C1` (stereo partly drawn) [Example 61, 1-{4-[(2S)-2,3-dihydro-1,4-benzodioxin-2-yl]benzyl}pyrrolidine-3-carboxylic acid] it is 0.25 µM; for `CC(=O)N1CC[C@@H](NCc2ccc([C@H]3COc4ccccc4O3)cc2)C1` [Example 64, 1-[(3R)-3-({4-[(2S)-2,3-dihydro-1,4-benzodioxin-2-yl]benzyl}amino)pyrrolidin-1-yl]ethanone] it is 0.158 µM.
In the case of `CN(Cc1ccc([C@H]2COc3ccccc3O2)cc1)C1CCCCC1` [Example 67, N-{4-[(2S)-2,3-dihydro-1,4-benzodioxin-2-yl]benzyl}-N-methylcyclohexanamine], the half-inhibitory concentration (IC50) was 0.346 µM.
Regarding `CC1CCCCN1Cc1ccc([C@H]2COc3ccccc3O2)cc1` (stereo partly drawn) [Example 68, 1-{4-[(2S)-2,3-dihydro-1,4-benzodioxin-2-yl]benzyl}-2-methylpiperidine], the IC50 worked out at 0.0807 µM.
For the compound `OCC1CCCN(Cc2ccc([C@H]3COc4ccccc4O3)cc2)C1` (stereo partly drawn) [Example 69, (1-{4-[(2S)-2,3-dihydro-1,4-benzodioxin-2-yl]benzyl}piperidin-3-yl)methanol], the IC50 was determined as 0.165 µM.
On to `CN(Cc1ccc([C@H]2COc3ccccc3O2)cc1)C(C)(C)C` [Example 81, N-{4-[(2S)-2,3-dihydro-1,4-benzodioxin-2-yl]benzyl}-N,2-dimethylpropan-2-amine], for which the IC50 is 0.0807 µM.
As to `CC(=O)N(C)C1CCN(Cc2ccc([C@H]3COc4ccccc4O3)cc2)C1` (stereo partly drawn) [Example 83, N-(1-{4-[(2S)-2,3-dihydro-1,4-benzodioxin-2-yl]benzyl}pyrrolidin-3-yl)-N-methylacetamide], the IC50 turned out to be 0.0335 µM.
As to `c1ccc2c(c1)OC[C@H](c1ccc(CN3CCC[C@H]4CCCC[C@@H]43)cc1)O2` [Example 85, (4aR,8aS)-1-{4-[(2S)-2,3-dihydro-1,4-benzodioxin-2-yl]benzyl}decahydroquinoline], the IC50 worked out at 0.305 µM.
On to `OC[C@H]1CCCC[C@H]1NCc1ccc([C@H]2COc3ccccc3O2)cc1` [Example 87, [(1S,2R)-2-({4-[(2S)-2,3-dihydro-1,4-benzodioxin-2-yl]benzyl)amino)cyclohexyl] methanol], for which the IC50 was 0.268 µM.
The figure for `COC1CCN(Cc2ccc([C@H]3COc4ccccc4O3)cc2)CC1` [Example 98, 1-{4-[(2S)-2,3-dihydro-1,4-benzodioxin-2-yl]benzyl}-4-methoxypiperidine] is 0.18 µM; for `O=C1CCCN1CC1CCN(Cc2ccc([C@H]3COc4ccccc4O3)cc2)CC1` [Example 99, 1-[(1-{4-[(2S)-2,3-dihydro-1,4-benzodioxin-2-yl]benzyl}piperidin-4-yl)methyl]pyrrolidin-2-one] it is 0.0954 µM.
For the compound `CCN(Cc1ccc([C@H]2COc3ccccc3O2)cc1)C1CCCC1` [Example 109, N-{4-[(2S)-2,3-dihydro-1,4-benzodioxin-2-yl]benzyl}-N-ethylcyclopentanamine], the IC50 came out at 0.0755 µM.
Turning to `O=C1NCCCC12CCN(Cc1ccc([C@H]3COc4ccccc4O3)cc1)CC2` [Example 116, 9-{4-[(2S)-2,3-dihydro-1,4-benzodioxin-2-yl]benzyl}-2,9-diazaspiro[5.5]undecan-1-one], the IC50 is 0.31 µM.
The figure for `CC(=O)N1CCCC12CCN(Cc1ccc([C@H]3COc4ccccc4O3)cc1)C2` (stereo partly drawn) [Example 118, 1-(7-{4-[(2S)-2,3-dihydro-1,4-benzodioxin-2-yl]benzyl}-1,7-diazaspiro[4.4]non-1-yl)ethanone] is 0.256 µM; for `CN1CCC2(CCN(Cc3ccc([C@H]4COc5ccccc5O4)cc3)CC2)C1=O` [Example 121, 8-{4-[(2S)-2,3-dihydro-1,4-benzodioxin-2-yl]benzyl}-2-methyl-2,8-diazaspiro[4.5]decan-1-one] it is 0.159 µM; for `NC(=O)CN1CCCC12CCN(Cc1ccc([C@H]3COc4ccccc4O3)cc1)C2` (stereo partly drawn) [Example 123, 2-(7-{4-[(2S)-2,3-dihydro-1,4-benzodioxin-2-yl]benzyl}-1,7-diazaspiro[4.4]non-1-yl)acetamide] it is 0.312 µM.
The figure for `O=C1NCCC12CCN(Cc1ccc([C@H]3COc4cccnc4O3)cc1)CC2` [Example 125, 8-{4-[(3S)-2,3-dihydro[1,4]dioxino[2,3-b]pyridin-3-yl]benzyl}-2,8-diazaspiro[4.5]decan-1-one] is 0.0392 µM; for `c1cnc2c(c1)OC[C@H](c1ccc(CN3CCCC3)cc1)O2` [Example 126, (3S)-3-[4-(pyrrolidin-1-ylmethyl)phenyl]-2,3-dihydro[1,4]dioxino[2,3-b]pyridine] it is 0.0323 µM; for `O=C(O)CCC1CCN(Cc2ccc([C@H]3COc4ccccc4O3)cc2)CC1` [Example 134, 3-(1-{4-[(2S)-2,3-dihydro-1,4-benzodioxin-2-yl]benzyl}piperidin-4-yl)propanoic acid] it is 0.0946 µM.
Next, `CC1CCN(Cc2ccc([C@H]3COc4cccnc4O3)cc2)CC1` [Example 137, (3S)-3-{4-[(4-methylpiperidin-1-yl)methyl]phenyl}-2,3-dihydro[1,4]dioxino[2,3-b]pyridine]: 0.0276 µM; `CN(CCc1ccccn1)Cc1ccc([C@H]2COc3cccnc3O2)cc1` [Example 138, N-{4-[(3S)-2,3-dihydro[1,4]dioxino[2,3-b]pyridin-3-yl]benzyl}-N-methyl-2-(pyridin-2-yl)ethanamine]: 0.076 µM.
On to `c1cnc2c(c1)OC[C@H](c1ccc(CN3CCCCCC3)cc1)O2` [Example 139, (3S)-3-[4-(azepan-1-ylmethyl)phenyl]-2,3-dihydro[1,4]dioxino[2,3-b]pyridine], for which the IC50 amounted to 0.0132 µM.
`CCN(C)Cc1ccc([C@H]2COc3cccnc3O2)cc1` [Example 140, N-{4-[(3S)-2,3-dihydro[1,4]dioxino[2,3-b]pyridin-3-yl]benzyl}-N-methylethanamine]: the IC50 came out at 0.0334 µM.
Next, `CCN(CC)Cc1ccc([C@H]2COc3cccnc3O2)cc1` [Example 141, N-{4-[(3S)-2,3-dihydro[1,4]dioxino[2,3-b]pyridin-3-yl]benzyl}-N-ethylanamine]: 0.0328 µM; `CN(Cc1ccc([C@H]2COc3cccnc3O2)cc1)C1CCCC1` [Example 142, N-{4-[(3S)-2,3-dihydro[1,4]dioxino[2,3-b]pyridin-3-yl]benzyl}-N-methylcyclopentanamine]: 0.0244 µM; `c1cnc2c(c1)OC[C@H](c1ccc(CN3[C@H]4CC[C@@H]3CC4)cc1)O2` [Example 145, (3S)-3-{4-[(1s,4s)-7-azabicyclo[2.2.1]hept-7-ylmethyl]phenyl}-2,3-dihydro[1,4]dioxino[2,3-b]pyridine]: 0.0284 µM.
The figure for `FC1CCN(Cc2ccc([C@H]3COc4cccnc4O3)cc2)CC1` [Example 155, (3S)-3-{4-[(4-fluoropiperidin-1-yl)methyl]phenyl}-2,3-dihydro[1,4]dioxino[2,3-b]pyridine] is 0.0954 µM; for `c1cnc2c(c1)OC[C@H](c1ccc(CN3CCn4cnnc4C3)cc1)O2` [Example 156, (3S)-3-[4-(5,6-dihydro[1,2,4]triazolo[4,3-a]pyrazin-7(8H)-ylmethyl)phenyl]-2,3-dihydro[1,4]dioxino[2,3-b]pyridine] it is 0.159 µM.
The figure for `CC(C)(CN1CCCC1)NCc1ccc([C@H]2COc3cccnc3O2)cc1` [Example 157, N-{4-[(3S)-2,3-dihydro[1,4]dioxino[2,3-b]pyridin-3-yl]benzyl}-2-methyl-1-(pyrrolidin-1-yl)propan-2-amine] is 0.035 µM.
As to `COC1CCCN(Cc2ccc([C@H]3COc4cccnc4O3)cc2)C1` (stereo partly drawn) [Example 158, (3S)-3-{4-[(3-methoxypiperidin-1-yl)methyl]phenyl}-2,3-dihydro[1,4]dioxino[2,3-b]pyridine], the IC50 came to 0.0275 µM.
